Measured values: a melting point compilation (Tetko et al.; mined from patent text by program, amines drawn as free bases though some values may be those of a salt)

Compound	melting point
CCCNC(=O)N1CCc2cc(S(=O)(=O)n3cc(-c4ccccc4)[nH]c3=O)ccc21	165 to 167 °C
N#CC(=NNc1ccc(C(F)(F)F)cc1)C(=O)NCc1ccc(Cl)nc1	204 to 205 °C
Cc1cccc(-c2sc(NC(=O)Nc3ccccc3)nc2-c2cc(C)nc(C)c2)c1	173 to 174 °C
CC1OOC2(/C=C\c3ccc(C(F)(F)F)cc3C(F)(F)F)CC1CC(=O)C2C (stereo not given)	124 °C
COC(=O)C1(C(=O)Nc2ccc(Br)cc2C)C2CCCCC21 (stereo not given)	105 to 107 °C
Cc1nc2c3c(c(C(=O)NC4CC4)cc2n1C)CCC1(Cc2ccccc2C1)N3	247 to 248 °C
O=c1cc(-c2ccncn2)nc2n1CCCCC2C1CC1 (racemic)	139 to 140 °C
CN1CCN(Cc2ccc(NC(=O)n3ccc4cc(Oc5cc(CC(N)=O)ncn5)ccc43)cc2C(F)(F)F)CC1	221 to 223 °C
CC(CCC(=O)O)C1CCC2C3C(=O)CC4CC(OC=O)CCC4(C)C3CC(OC=O)C12C (stereo not given)	208 to 211 °C
N#Cc1ccc(OCC(=O)O)cc1F	150 to 152 °C
CC(C)(C)OC(=O)NC1CCN(Cc2ccccc2)C1 (stereo not given)	114 to 115 °C
CN(Cc1ccc(C2=NCCN2)cc1)C(=O)OCc1ccccc1	84 °C
O=C(c1ccccc1)N(c1ccccc1)c1ccc(OCc2ccccc2)cc1	141 to 143 °C
Cn1cnc(=O)[nH]c1=O	213 to 214 °C
CC(C)Oc1c(Br)csc1C(=O)Nc1nnn[nH]1	193 to 194 °C
CC(C)(C)OC(=O)NCCS(=O)(=O)Nc1ccc2c(c1)C(=O)Nc1cccnc1N2	195 to 198 °C
CCOC(=O)[C@H](Cc1cccc(-c2ccc3ccccc3c2)c1)NC(=O)C(F)(F)F	89 to 91 °C
COc1ccc(S(=O)(=O)C(C)(CC=Cc2ccccc2)C(=O)NO)cc1 (stereo not given)	162 to 164 °C
CC(C)(C)OC(=O)NC(Cc1ccccc1)C(=O)Nc1ccc2[nH]cc(CC#N)c2c1 (stereo not given)	146 to 149 °C
C=CC[C@H](CC(=O)OC(C)(C)C)C(=O)N[C@H](C(=O)N[C@H](COC)c1ccccc1)C(C)C	155 to 157 °C
CCOP(=O)(COCC(O)COn1cnc2c(N)ncnc21)OCC (stereo not given)	84 to 85 °C
O=c1ccn(C2C=CC(CO)O2)c(=O)[nH]1 (stereo not given)	150 to 151 °C
CCOC1Nc2c(OC(C)=O)cccc2C(=O)N2CCCC12 (stereo not given)	146 to 149 °C

Compound	melting point
c1ccc(Cc2ccc3c(c2)nc2n3CCCS2)cc1	145 to 147 °C
CCCCCCC(C(=O)O)N1NCc2cc(-c3ccccc3-c3nn[nH]n3)ccc21 (stereo not given)	105 to 110 °C
CC1=C(c2cccc(C(F)(F)F)c2)n2ncc(C(N)=O)c2NC1	200 to 202 °C
O=C1NC(=O)C(Cc2ccc(OCCN3CCc4ccccc43)cc2)S1 (stereo not given)	133 to 136 °C
COC(=O)C12CCc3cc(Cl)ccc3C1=NN(C(=O)Nc1ccc(C(F)(F)F)cc1)C2 (stereo not given)	234 to 236 °C
COc1cccc(OC)c1C(=O)P(=S)(CC(C)C)C(=O)c1c(OC)cccc1OC	145 to 147 °C
COC1CC(OC)(OC)C(=O)O1 (stereo not given)	55 °C
Cn1ncc(C(=O)N2CCCC2)c1C(=O)Nc1ccn2nc(N3CCOCC3)nc2c1	210 to 212 °C
CC(C)C(OC(=O)NC(C)(Cc1ccccc1)C(=O)NC(C)(C)c1ccccc1)c1ccccc1 (stereo not given)	115 to 123 °C
C=CCCCCCCCCC(O)CC(=O)O (stereo not given)	62 to 64 °C
CCOC[C@@H]1CNCC[C@@H]1c1ccc(Cl)c(Cl)c1	68 to 70 °C
CC(=O)C1CCC2C3CCC4C=CCCC4(C)C3CCC12C (stereo not given)	135 to 136 °C
O=c1[nH]ccc2cc(S(=O)(=O)N3CCCNCC3)ccc12	266 to 267 °C
CC(=O)c1cccc(NC=O)c1	100 to 102 °C
O=[N+]([O-])c1cc(Cl)ccc1N1CCc2ccccc21	97 to 99 °C
COC(=O)c1ccccc1S(=O)(=O)NC(=O)Nc1nc(OC)nc(C2CC2)n1	166 to 168 °C
O=[N+]([O-])c1ccc2c(-n3ccnc3)nnc(NCc3ccc4c(c3)OCO4)c2c1	154 to 156 °C
Cc1nc(C(F)F)c(C(=O)Nc2ccccc2-c2ccc(Br)cc2)s1	151 °C
O=c1oc(-c2ccc(C(F)(F)F)cc2)nc2cc(F)ccc12	137 to 139 °C
CC=Cn1c(C)c(C)c2cnnc(OCc3ccc(F)cc3)c21	114 to 115 °C
O=C(O)CC(=O)N1CCSCC1	119 to 120 °C
OC(CCN1CC=C(c2ccc(Cl)cc2)CC1)c1ccc(Cc2ccccn2)cc1 (stereo not given)	129 to 131 °C
O=C(O)CN1C(=O)C(=Cc2ccc(OCc3ccc(F)cc3F)c(OCc3ccc(F)cc3F)c2)SC1=S	251 to 254 °C

Compound	melting point
FC(F)(F)c1cc(C(F)(F)F)c(-c2ccc(Cl)cc2)[nH]1	41 to 43 °C
CCCCCCCCc1ccc(N=Nc2ccc(OC(=O)CCOCCCCCCC)cc2)cc1	42.1 °C
O=C(CCl)Nc1ccccc1C(=O)c1ccccc1C(F)(F)F	79 to 81 °C
CC(Br)c1cccc2c(-c3ccccc3)onc12 (stereo not given)	73 to 77 °C
O=C1CN2Cc3cc(OCCCCCCn4ccnc4)ccc3N=C2N1	188 to 189 °C
CCOc1ccc(CC(=O)Nc2ccc(S(=O)(=O)Nc3ccccc3C(=O)O)cc2)cc1	241 to 242 °C
Cn1cccc1C(=O)C(C#N)C(=O)Nc1ccc(F)cc1 (stereo not given)	198 to 199 °C
COc1cc2c(cc1OC)CC(NC(=O)C1CCC(=O)N1)CC2 (stereo not given)	195 to 196 °C
COc1ccc(-c2nc(-c3cccn3CC(=O)O)sc2-c2ccc(OC)cc2)cc1	198 to 200 °C
COC(=O)C(Oc1ccc(Cl)cc1)c1ccc(Sc2ccc(Cl)cc2)cc1 (stereo not given)	90.5 to 94.5 °C
CC(C)n1nc(-c2sc(NC(=O)c3ccc(CNCCN4CCCCC4)cc3)nc2-c2ccccc2)ccc1=O	134 to 136 °C
COC1Oc2c(c(=O)oc3cc(O)ccc23)C1c1c(O)c2ccc(O)cc2oc1=O (stereo not given)	> 300 °C
OC(CCCN1CC=C(c2ccccc2)CC1)c1ccc(Cc2ccc(Cl)cc2)cc1 (stereo not given)	108 to 111 °C
Cc1cccc(C(C)C)c1NC(=O)Nc1c(C)nc(-c2ccccc2)nc1-c1ccccc1Cl	266 to 267 °C
Cc1cc(Cl)ccc1-n1c(CF)nc2ccc(N)cc2c1=O	191 to 193 °C
CN1c2cccc3cccc(c23)N(CCCN2CC=C(c3ccccc3)CC2)S1(=O)=O	146 °C
Cc1ccc2c(c1)SC(C(F)(F)F)C(C(=O)O)=C2 (stereo not given)	187 to 192 °C
Cc1cc(C(=O)N2Cc3cccn3Cc3ccccc32)ccc1I	152 to 153 °C
COc1ccc(N2C(=O)C(N3C(=O)c4ccccc4C3=O)C2c2ccc(C(=O)O)cc2)cc1 (stereo not given)	265 °C
O=C(O)/C(=C/C1CCCCC1)c1ccc(F)c(F)c1	119 to 121 °C
CC(C(=O)NC1CC(C(=O)O)Nc2cc(Cl)cc(Cl)c21)c1ccccc1 (stereo not given)	210 to 212 °C
CC(=O)c1cccc(Oc2ncc(C(F)(F)F)cc2F)c1	65 to 67 °C

More lines, now with the values ahead:

melting point	Compound
106 to 107 °C	CC(C)c1nc(CCCOc2ncccc2CC(=O)O)c(Cc2ccc(Cl)cc2Cl)s1
144 to 145 °C	Cc1nc(C)c(Cl)c(NCc2nccc(SCCCN3CCNCC3)c2C)n1
62 to 64 °C	COc1ccc(CCCOc2c(C)cc(-c3noc(C(F)(F)F)n3)cc2C)cn1
49 to 50 °C	CCCc1cc(Cl)c2occ(C)c2c1O
114 to 116 °C	CC(C)(C#N)CN1C(=O)C2(OCCCO2)c2cc(Cl)ccc21
224 to 226 °C	CCCC(=O)c1cc(C(=O)C(=O)OC(=O)C(=O)c2cc(C(=O)CCC)c(C)cc2N)c(N)cc1C
174 to 175 °C	CCOCCNC(=O)c1cc(C(=O)OC)c(O)c2ncc(Cc3ccc(F)cc3)cc12
> 300 °C	CCC1=C(C#N)C(c2ccccc2Cl)c2c[nH]nc2N1 (stereo not given)
235 to 238 °C	Cn1c([N+](=O)[O-])cnc1-c1cc(C(N)=O)on1
194 to 195 °C	C[C@@H](NC(=O)c1cnc(-c2ccc(Cl)cc2)s1)[C@](O)(Cn1cncn1)c1ccc(F)cc1F
106 to 108 °C	COc1ccc(CCOS(N)(=O)=O)cc1OC
182 to 184 °C	COc1ccc2nc(Cl)cc(CC#N)c2c1
47 to 48 °C	CCOC(=O)c1cnoc1-c1ccc(Br)cc1
78 to 79 °C	CC(=O)Oc1c(C(=O)c2ccccc2Cl)c(C)nn1C
84.3 to 86.2 °C	CCOC(=O)C1=Cc2cc(C=O)ccc2OC1C(F)(F)F (stereo not given)
179 to 182 °C	NCc1cccc(CNc2ncc3ncnc(Nc4ccc(F)c(Cl)c4)c3n2)c1

melting point	Compound
264 to 265 °C	COC(=O)c1cc(OC)c(C)c2c1Oc1c(C=O)c(O)cc(C)c1C(=O)O2
145 to 147 °C	CCCNCC(O)COc1ccc2c(=O)cc(-c3ccccc3)oc2c1 (stereo not given)
101 to 103 °C	CCOC(=O)c1cc(-c2cc(OC)cc(OC)c2)ns1
163 to 165 °C	CCCc1nc2c(N)nc3ccccc3c2n1CCCC(=O)N(C)OC
157 to 158 °C	CC(C)(C)OC(=O)N1CCC[C@@H]1Cc1cccc2ccc(N)cc12
152 to 154 °C	Cc1noc(NS(=O)(=O)c2ccc(N(C)C)cc2)c1C
88 to 90 °C	Cc1c(-c2ccccc2)c(Cl)nc2ccccc12
248 to 250 °C	NC(=O)CCn1c(-c2ccc(Cl)cc2)nc2cccnc21
159 to 160 °C	CCOC(=O)c1cn(C(C)(C)C)c2nc(SCC)c(F)cc2c1=O
203 °C	N#CCc1ccc(-c2nc3ccccc3o2)cc1[N+](=O)[O-]
132 to 133 °C	CCCCc1nc2cc(Cl)cc(C(=O)OC)c2n1Cc1ccc(-c2ccccc2-c2nnn[nH]2)cc1
60 to 62 °C	CCOC(=O)c1ncc2c(c1COC)c1c(OS(=O)(=O)C(F)(F)F)cccc1n2S(=O)(=O)C(F)(F)F
98 to 99 °C	Clc1cc(Cl)c2ocnc2c1
146 to 148 °C	CCS(=O)(=O)Nc1cc(N=c2sc(=S)n3n2CCCC3)c(F)cc1Cl
< 30 °C	CC(C)(C)c1cc(Cn2cncn2)cc(C(C)(C)C)c1O
123 to 124 °C	CCN(CC)CCNC(=O)c1cc(NS(C)(=O)=O)c(Cl)cc1OC
